Data reported in US20030138429A1, “Compositions and methods for inhibiting metastasis” (priority 2001, published 2003).
Entries after “also recorded” stand apart in the source; their conditions may differ.

Experiments:
[1] = test system: 1-LN human prostate tumor cells; test: Binding of 125I-labeled Pg 2 glycoforms to 1-LN cells; conditions: for BINDING +6-AHA: binding to surface of 1-LN cells in presence of 6-AHA; for BINDING +6-AHA / BINDING +L-lactose: Yes/No; for BINDING +L-lactose: binding to surface of 1-LN cells in presence of L-lactose; for Binding to 1-LN cells: in words; for Bound (Molecules × 10^5/cell): maximal binding, mean ± SD
Experimental: Ligand Binding Analysis—Cells were grown in tissue culture plates until the monolayers were confluent. Prior to use in binding assays, the cells were washed in HBSS. All binding assays were performed at 4° C. in RPMI 1640 containing 2% bovine serum ablumin (BSA). Increasing concentrations of ^125I-labeled Pg 2 glycoforms were incubated with cells for 60 min in 48-well or 96-well culture plates, respectively. Free ligand was separated from bound by aspirating the incubation mixture by and washing the cell monolayers rapidly three times with RPMI 1640 containing 2% BSA. The cells were then lyzed with 0.1 M NaOH, and bound radioactivity was determined in a Pharmacia LKB Biotechnology 1272-gamma counter. Molecules of ligand bound were calculated after substraction of non-specific binding measured in the presence of nonlabeled 100 μM Pg 2. Estimates for dissociation constant (Kd) values and maximal binding of Pg 2 glycoforms (Bmax) were determined by fitting data directly to the Langmuir isotherm using the statistical program SYStat® for Windows.
Binding of Single Pg 2 Glycoforms to 1-LN Human Prostate Tumor Cells—Binding of ^125I-labeled single Pg 2 glycoforms to 1-LN cells was determined as described under Experimental Procedures. Native Pg 2 has six glycoforms which differ in their sialic acid content.
In order to assess the binding mechanism of the individual Pg 2 glycoforms to 1-LN cells, we studied their activation by cells incubated with each glycoform in the presence of 6-aminohexanoic acid (6-AHA) and L-lactose. The antifibrinolytic amino acid 6-AHA prevents interaction of Pg L-lysine binding sites with several cell membrane-associated components. L-lactose is a sugar which intereferes with binding of Neu 5-AC (α2-3) or (α2-6) residues to sialic acid binding proteins and inhibits binding of Native Pg 2 to DPP IV on the surface of rheumatoid synovial fibroblasts.

1-LN cells [2] = test: In vitro Matrigel invasion assay (modified Boyden chamber); format: cell-based, human
Experimental: In Vitro Invasion Assay—The invasive activity in vitro was assessed by determining the ability of 1-LN cells to invade Matrigel® [47]. Polycarbonate filters (8-μm pore size; Becton Dickinson, Franklin Lakes, N.J.) were coated with Matrigel (12 μg/filter) and placed in a modified Boyden chamber. Cells (1×10^5) were added to the upper chamber in serum-free RPMI 1640 medium, or medium containing purified Pg 2 glycoforms in the absence and presence of anti-DPP IV, anti-u-PA or anti-MMP-9 IgGs, and incubated for 48 h in a humidified atmosphere. Following incubation, non-invading cells were removed from the upper chamber with a cotton swab, and filters were excised and stained with Cyto-Quik™ (Fisher Scientific, Fair Lawn, N.J.). Cells on the lower surface of the filter were enumerated using an ocular micrometer and counting a minimum of five high-powered fields. Each experiment was performed twice with triplicate samples.
Effect of Pg on 1-LN Cellular Invasion—Pg enhances the ability of prostate cancer PC-3 and DU-145 cell lines to penetrate the synthetic basement membrane Matrigel® [54]. To determine whether Pg regulates invasion via secretion of MMP-9, 1-LN cells were incubated with different inhibiting antibodies in the presence of purified Pg 2 glycoforms.

1-LN cells [3] = test: [Ca2+]i response of 1-LN cells (Fura-2/AM digital imaging microscopy); format: cell-based, human; conditions: for [Ca^2+]i Increase: Yes/No; for [Ca2+]i response after binding of glycoform: glycoform 0.1 μM, in words
Experimental: Measurement of Intracellular Calcium Levels—Cystolic free calcium [Ca^2+]i, was measured by Digital Imaging Microscopy (DIM) using the fluorescent indicator Fura-2/AM as previously described.
[Ca^2+]i Response to Pg 2 Glycoforms Binding on the Surface of 1-LN Cells—We measured changes in [Ca^2+]i after binding of each individual Pg 2 glycoform to the surface of 1-LN cells. […] Similarly, cells were incubated at 37° C. for 1 h with anti-u-PA or anti-p IgGs (100 μg/ml) which inhibit enzymatic activity prior to addition of the highly sialylated glycoforms (Pgs 2γ, 2δ, and 2ε).

[4] = Serum-Free Medium + glycoform 0.1 μM
[5] = 125I-labeled glycoform, 1-LN cell monolayers, serum-free RPMI 1640, mean ± SD
[6] = 125I-labeled glycoform, 1-LN cell monolayers
[7] = glycoform 0.1 μM +Anti-DPP IV IgG 50 μg/ml
[8] = glycoform 0.1 μM +Anti-MMP-9 IgG 20 μg/ml
[9] = glycoform 0.1 μM +Anti-u-PA IgG 100 μg/ml

Compound | Inhibition of binding of single Pg 2 glycoforms to 1-LN cells ([1]; 125I-labeled glycoform 0.1 μM, increasing concentrations of inhibitor) | Relative Invasion (Number of Cells/Field) (1-LN cells [2]; [4]) | [Ca^2+]i Increase (1-LN cells [3]) | [Ca2+]i response after binding of glycoform (1-LN cells [3]) | Kd [1, 5] | BINDING +6-AHA [1] | BINDING +L-lactose [1] | Binding to 1-LN cells [1] | Bound (Molecules × 10^5/cell) [1, 6] | Relative Invasion (Number of Cells/Field) (1-LN cells [2]; [7]) | Relative Invasion (Number of Cells/Field) (1-LN cells [2]; [8]) | Relative Invasion (Number of Cells/Field) (1-LN cells [2]; [9]) | Enhancement of cellular invasion (1-LN cells [2]; Matrigel invasion by 1-LN cells) | Kd (nM) [1, 5]
OC[C@@H]1O[C@H](O[C@@H]2[C@@H](O)[C@H](O)C(O)O[C@H]2CO)[C@@H](O)[C@H](O)[C@@H]1O (stereo partly drawn) [L-lactose, reference compound] | inhibited binding of Pgs 2γ, 2δ, and 2ε |  |  |  |  |  |  |  |  |  |  |  |  | 
Pg 2α: glycoform of human plasminogen type 2 purified from plasma; 1.3 mol sialic acid/mol Pg |  | 13.5 ± 3.4 Number of Cells/Field | No | did not produce any changes | 0.0243 ± 0.00133 µM | No | Yes | bind to 1-LN cells in a dose-dependent manner with high affinity | 13.0 ± 4.6 Molecules × 10^5/cell |  |  |  |  | 
Pg 2β: glycoform of human plasminogen type 2 purified from plasma; 2.2 mol sialic acid/mol Pg |  | 9.4 ± 2.1 Number of Cells/Field | No | did not produce any changes | 0.0074 ± 0.00186 µM | No | Yes | bind to 1-LN cells in a dose-dependent manner with high affinity | 8.3 ± 1.3 Molecules × 10^5/cell |  |  |  |  | 
Pg 2γ: glycoform of human plasminogen type 2 purified from plasma; 2.95 mol sialic acid/mol Pg |  | 7.8 ± 1.6 Number of Cells/Field | Yes | elicited a [Ca^2+]i response | 0.0106 ± 0.00143 µM | Yes | No | bind to 1-LN cells in a dose-dependent manner with high affinity | 8.6 ± 1.7 Molecules × 10^5/cell | 4.6 ± 2.7 Number of Cells/Field | 2.1 ± 1.2 Number of Cells/Field | 5.3 ± 2.8 Number of Cells/Field |  | 
Pg 2δ: glycoform of human plasminogen type 2 purified from plasma; 5.77 mol sialic acid/mol Pg |  | 9.2 ± 2.5 Number of Cells/Field | Yes | elicited a [Ca^2+]i response | 0.0136 ± 0.00104 µM | Yes | No | bind to 1-LN cells in a dose-dependent manner with high affinity | 18.1 ± 2.4 Molecules × 10^5/cell | 10.4 ± 3.1 Number of Cells/Field | 1.8 ± 1.0 Number of Cells/Field | 7.8 ± 2.6 Number of Cells/Field |  | 
Pg 2ε: glycoform of human plasminogen type 2 purified from plasma; 5.34 mol sialic acid/mol Pg |  | 46.6 ± 5.4 Number of Cells/Field | Yes | elicited a [Ca^2+]i response | 0.0038 ± 0.00083 µM | Yes | No | bind to 1-LN cells in a dose-dependent manner with high affinity | 9.4 ± 0.8 Molecules × 10^5/cell | 3.1 ± 1.6 Number of Cells/Field | 1.5 ± 1.0 Number of Cells/Field | 2.1 ± 1.3 Number of Cells/Field | 6-7 fold | 
Pg 2φ: glycoform of human plasminogen type 2 purified from plasma; 13.65 mol sialic acid/mol Pg |  | 6.8 ± 1.3 Number of Cells/Field |  | No response |  |  |  | does not bind; also recorded: No binding |  |  |  |  |  | No Binding
